Measurements from patent publication US10822334B2, “ErbB receptor inhibitors” (Dizal (Jiangsu) Pharmaceutical Co., Ltd., priority 2018, dated 2020).

Assays:
Type in all cases: cell-based
WT EGFR = WT EGFR (Homo sapiens (Human), UniProt P00533); test: EGFR (Y1068) phosphorylation in NCI-H838 cells (MSD); details: p-EGFR (Y1068)/total EGFR, 4 h, hEGF stimulation
WT HER2 = WT HER2 (Homo sapiens (Human), UniProt P04626); test: HER2 (Y1248) phosphorylation in BT474 cells (MSD); details: p-HER2 (Y1248)/total HER2, 4 h, read-out: HER2 WT Amplification BT474 IC50
Protocol: The plates were incubated for 4 h at 37° C. with 5% CO2 and then the HER2 (Y1248) phosphorylation level of cells in each well were measured with MSD Kit (Phospho-ErbB2 ([…]) Assay Whole Cell Lysate Kit: Cat # […]-3). The assay is a electrochemiluminescent method (MESO SCALE DISCOVERY) for determining both phosphorylated and total HER2 of cells with an MSD SECTOR® Imager and then the ratio of p-HER2/total HER2 can be generated by the machine.

BT474 cells = test: BT474 anti-proliferation assay (MTS); details: Homo sapiens, BT-474; BT474 cells, 72 h, MTS; read-out: HER2 WT Amplification BT474 GI50
Protocol: A compound's activity of selective inhibition for HER2 wild type amplification can be evaluated with BT474 cell line (ATCC® HTB-20™). The cell line expressed phosphorylated HER2 protein and its proliferation depended on the amplified gene, which could be used for in vitro PD and anti-proliferation assays.
The anti-proliferation activity of compounds were determined as following procedure: The BT474 cells were sorted in 384 well plates with the DMEM medium containing 10% FBS and […] overnight and then dosed with tested compounds at a series of concentrations (30 μM, 10 μM, 3 μM, 0.3 μM, 0.1 μM, 0.03 μM, 0.01 μM, 0.001 μM) on next day. Meanwhile, another cells plate was prepared for measuring GO value on next day. The dosed plates were incubate for 72h at 37° C. with 5% CO2 and the number of viable cells in each well of GO or dosed plates were measured by MTS (CellTiter 96® AQueous One Solution Cell Proliferation Assay, Promega) endpoint. This assay is a colorimetric method for determining the number viable cells in the proliferation assay. Detection reagents (5 μl) was dispensed into per well, and the plates were incubated for 2 hrs at room temperature. Then, absorbance at 490 nm and 650 nm (reference wavelength) in each well was measured using the safile II. (Tecan). The percentage of proliferation was got from the formula: % Proliferation=100×(G3 value of sample well-Go value)/(G3 value of DMSO control-Go value). The GI50 values were further calculated as the compounds concentration required for 50% Proliferation in best-fit curves using Genedata Screener® software.

Chain of WT HER2 (P04626 23-1255): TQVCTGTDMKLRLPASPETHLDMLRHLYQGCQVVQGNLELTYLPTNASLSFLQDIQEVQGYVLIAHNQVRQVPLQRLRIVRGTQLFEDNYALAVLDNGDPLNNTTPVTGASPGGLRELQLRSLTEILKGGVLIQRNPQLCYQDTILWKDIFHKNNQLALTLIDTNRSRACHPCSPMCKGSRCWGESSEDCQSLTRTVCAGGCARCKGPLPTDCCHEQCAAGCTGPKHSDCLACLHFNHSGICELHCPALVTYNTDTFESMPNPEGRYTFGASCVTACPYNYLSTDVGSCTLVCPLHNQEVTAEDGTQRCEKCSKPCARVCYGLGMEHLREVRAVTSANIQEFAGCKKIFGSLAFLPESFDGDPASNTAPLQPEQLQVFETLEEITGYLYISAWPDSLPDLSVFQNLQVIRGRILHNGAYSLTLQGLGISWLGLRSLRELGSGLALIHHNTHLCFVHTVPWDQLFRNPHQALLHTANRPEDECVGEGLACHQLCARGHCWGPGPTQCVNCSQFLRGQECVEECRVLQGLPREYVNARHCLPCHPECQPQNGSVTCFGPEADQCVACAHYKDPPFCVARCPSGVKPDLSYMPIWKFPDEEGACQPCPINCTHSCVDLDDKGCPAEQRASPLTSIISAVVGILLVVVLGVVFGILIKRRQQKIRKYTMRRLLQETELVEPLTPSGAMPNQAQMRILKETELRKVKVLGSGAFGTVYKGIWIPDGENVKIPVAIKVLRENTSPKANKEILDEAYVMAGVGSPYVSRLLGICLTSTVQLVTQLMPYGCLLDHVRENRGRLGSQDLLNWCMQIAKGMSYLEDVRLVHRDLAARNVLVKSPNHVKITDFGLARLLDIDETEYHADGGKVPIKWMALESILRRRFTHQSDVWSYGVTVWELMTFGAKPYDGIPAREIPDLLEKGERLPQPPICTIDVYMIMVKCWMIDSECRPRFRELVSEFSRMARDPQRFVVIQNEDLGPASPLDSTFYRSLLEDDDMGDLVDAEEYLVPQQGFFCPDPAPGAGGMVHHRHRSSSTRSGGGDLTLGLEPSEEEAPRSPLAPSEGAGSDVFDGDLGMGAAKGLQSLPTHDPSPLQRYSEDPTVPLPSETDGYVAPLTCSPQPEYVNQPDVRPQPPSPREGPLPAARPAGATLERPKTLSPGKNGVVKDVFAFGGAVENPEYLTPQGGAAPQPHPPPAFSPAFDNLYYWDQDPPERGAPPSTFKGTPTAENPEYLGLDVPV
Chain of WT EGFR (P00533 25-1210): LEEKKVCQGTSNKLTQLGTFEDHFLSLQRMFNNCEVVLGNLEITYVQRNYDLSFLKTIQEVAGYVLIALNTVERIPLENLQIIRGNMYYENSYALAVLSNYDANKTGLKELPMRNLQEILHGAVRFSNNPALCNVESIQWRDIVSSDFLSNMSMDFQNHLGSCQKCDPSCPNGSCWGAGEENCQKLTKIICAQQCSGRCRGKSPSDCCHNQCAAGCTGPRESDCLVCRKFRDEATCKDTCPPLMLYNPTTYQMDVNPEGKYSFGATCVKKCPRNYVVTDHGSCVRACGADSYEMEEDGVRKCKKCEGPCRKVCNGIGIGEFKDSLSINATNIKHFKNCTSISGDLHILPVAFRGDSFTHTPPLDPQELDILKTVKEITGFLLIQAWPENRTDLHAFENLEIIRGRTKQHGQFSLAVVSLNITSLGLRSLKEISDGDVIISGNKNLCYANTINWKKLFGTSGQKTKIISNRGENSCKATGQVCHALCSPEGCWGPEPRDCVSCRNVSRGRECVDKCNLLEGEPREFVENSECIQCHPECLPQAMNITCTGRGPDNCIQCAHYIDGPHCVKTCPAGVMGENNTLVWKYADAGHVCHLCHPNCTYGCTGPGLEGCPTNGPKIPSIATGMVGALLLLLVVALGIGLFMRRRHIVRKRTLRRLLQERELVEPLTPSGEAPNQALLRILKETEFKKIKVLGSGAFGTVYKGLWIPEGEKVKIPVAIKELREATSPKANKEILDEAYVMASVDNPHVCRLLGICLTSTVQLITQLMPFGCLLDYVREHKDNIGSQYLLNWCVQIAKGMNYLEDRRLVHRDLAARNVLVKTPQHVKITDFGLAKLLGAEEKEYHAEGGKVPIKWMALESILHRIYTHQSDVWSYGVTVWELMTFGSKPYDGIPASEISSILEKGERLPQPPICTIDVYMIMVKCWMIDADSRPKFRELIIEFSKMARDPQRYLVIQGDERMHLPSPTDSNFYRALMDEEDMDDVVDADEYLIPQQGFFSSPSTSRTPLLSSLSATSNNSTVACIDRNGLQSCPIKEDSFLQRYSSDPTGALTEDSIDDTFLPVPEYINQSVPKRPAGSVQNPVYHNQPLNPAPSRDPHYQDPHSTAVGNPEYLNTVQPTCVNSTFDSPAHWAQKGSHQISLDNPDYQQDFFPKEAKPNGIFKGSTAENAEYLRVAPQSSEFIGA

IC50 (WT EGFR) [nM]	IC50 (WT HER2) [nM]	GI50 (BT474 cells) [nM]	Structure (SMILES)
> 10000	2.55		Cc1cc(Nc2ncnc3cccc(OC4CCNC(C(F)F)C4)c23)ccc1Oc1ccn2ccnc2c1 (racemic) [Compound 15, (±)-(5-(((2S,4S)-2-(difluoromethyl)piperidin-4-yl)oxy)-N-(4-(imidazo[1,2-a]pyridin-7-yloxy)-3-methylphenyl)quinazolin-4-amine]
> 10000	5.84	14.1	[2H]C([2H])([2H])Oc1ccc2ncnc(Nc3ccc(Oc4ccn5ncnc5c4)c(C)c3)c2c1OC1CCN(C([2H])([2H])[2H])CC1(F)F (racemic) [Compound 26, (±)-N-(4-([1,2,4]triazolo[1,5-a]pyridin-7-yloxy)-3-methylphenyl)-5-((3,3-difluoro-1-(methyl-d3)piperidin-4-yl)oxy)-6-(methoxy-d3)quinazolin-4-amine]
> 3000	26	44.7 ± 4.2	COc1ccc2ncnc(Nc3ccc(Oc4ccn5ncnc5c4)c(C)c3)c2c1OC1CCN(C)CC1F (single isomer, unassigned) [Compound 3, N-(4-([1,2,4]triazolo[1,5-a]pyridin-7-yloxy)-3-methylphenyl)-5-((3-fluoro-1-methylpiperidin-4-yl)oxy)-6-methoxyquinazolin-4-amine]
> 3000	6.83	15.1 ± 8.19	COc1ccc2ncnc(Nc3ccc(Oc4ccn5ncnc5c4)c(C)c3)c2c1OC1CN(C)CCC1(F)F (single isomer, unassigned) [Compound 5, N-(4-([1,2,4]triazolo[1,5-a]pyridin-7-yloxy)-3-methylphenyl)-5-((4,4-difluoro-1-methylpiperidin-3-yl)oxy)-6-methoxyquinazolin-4-amine]
> 3000	5.57	8.36 ± 0.15	Cc1cc(Nc2ncnc3cccc(OC4CCN(C)CC4(F)F)c23)ccc1Oc1ccc2c(c1)ncn2C (single isomer, unassigned) [Compound 7, 5-((3,3-difluoro-1-methylpiperidin-4-yl)oxy)-N-(3-methyl-4-((1-methyl-1H-benzo[d]imidazol-5-yl)oxy)phenyl)quinazolin-4-amine]
1800	6.92	7.47 ± 2.99	COc1cc(OC2CCN(C)CC2(F)F)c2c(Nc3ccc(Oc4ccn5ccnc5c4)c(C)c3)ncnc2c1 (single isomer, unassigned) [Compound 8, 5-((3,3-difluoro-1-methylpiperidin-4-yl)oxy)-N-(4-(imidazo[1,2-a]pyridin-7-yloxy)-3-methylphenyl)-7-methoxyquinazolin-4-amine]
1030	16.2	27.3 ± 14.5	Cc1cc(Nc2ncnc3cccc(OC4CCN(C)CC4(F)F)c23)ccc1Oc1ccc2ccnn2c1 (single isomer, unassigned) [Compound 9, 5-((3,3-difluoro-1-methylpiperidin-4-yl)oxy)-N-(3-methyl-4-(pyrazolo[1,5-a]pyridin-6-yloxy)phenyl)quinazolin-4-amine]
> 3000	7.86	19 ± 2.46	Cc1cc(Nc2ncnc3cc(N)cc(OC4CCN(C)CC4(F)F)c23)ccc1Oc1ccn2ncnc2c1 (single isomer, unassigned) [Compound 10, N^4-(4-([1,2,4]triazolo[1,5-a]pyridin-7-yloxy)-3-methylphenyl)-5-((3,3-difluoro-1-methylpiperidin-4-yl)oxy)quinazoline-4,7-diamine]
		24.6 ± 4.85	Cc1cc(Nc2ncnc3cccc(OC4CCN(C)CC4F)c23)ccc1Oc1ccn2ccnc2c1 (single isomer, unassigned) [Compound 11]
> 3000	7.56	9.02	CCN1CCC(Oc2cccc3ncnc(Nc4ccc(Oc5ccn6ncnc6c5)c(C)c4)c23)C(F)(F)C1 (single isomer, unassigned) [Compound 12]
515	12.6	8.58 ± 3.55	Cc1cc(Nc2ncnc3cc(OC4CCOC4)cc(OC4CCN(C)CC4(F)F)c23)ccc1Oc1ccn2ncnc2c1 (single isomer, unassigned) [Compound 18, N-(4-([1,2,4]triazolo[1,5-a]pyridin-7-yloxy)-3-methylphenyl)-5-((3,3-difluoro-1-methylpiperidin-4-yl)oxy)-7-((tetrahydrofuran-3-yl)oxy)quinazolin-4-amine]
	61.3 ± 11.2	15.9 ± 6.57	Cc1cc(Nc2ncnc3cccc(OC4CCN(C)CCC4(F)F)c23)ccc1Oc1ccn2ccnc2c1 (single isomer, unassigned) [Compound 21, 5-((5,5-difluoro-1-methylazepan-4-yl)oxy)-N-(4-(imidazo[1,2-a]pyridin-7-yloxy)-3-methylphenyl)quinazolin-4-amine]
2920 ± 2320	11.6 ± 10.4	18.6 ± 6.51	COc1cc(OC2CCN(C)CC2(F)F)c2c(Nc3ccc(Oc4cc5ncnn5cc4F)c(C)c3)ncnc2c1 (single isomer, unassigned) [Compound 22, 5-((3,3-difluoro-1-methylpiperidin-4-yl)oxy)-N-(4-((6-fluoro-[1,2,4]triazolo[1,5-a]pyridin-7-yl)oxy)-3-methylphenyl)-7-methoxyquinazolin-4-amine]
> 10000	6.17	11.7	COc1ccc2ncnc(Nc3ccc(Oc4cc5ncnn5cc4F)c(C)c3)c2c1OC1CCN(C)CC1(F)F (single isomer, unassigned) [Compound 23, 5-((3,3-difluoro-1-methylpiperidin-4-yl)oxy)-N-(4-((6-fluoro-[1,2,4]triazolo[1,5-a]pyridin-7-yl)oxy)-3-methylphenyl)-6-methoxyquinazolin-4-amine]
> 3000	7.96	4.33 ± 0.63	COc1ccc2ncnc(Nc3ccc(Oc4ccn5ncnc5c4)c(C)c3)c2c1OC[C@H]1CC(F)(F)CCN1C [Compound 4, (R)-N-(4-([1,2,4]triazolo[1,5-a]pyridin-7-yloxy)-3-methylphenyl)-5-((4,4-difluoro-1-methylpiperidin-2-yl)methoxy)-6-methoxyquinazolin-4-amine]
		12.1 ± 2.78	CS(=O)(=O)CCNCc1ccc(-c2ccc3ncnc(Nc4ccc(OCc5cccc(F)c5)c(Cl)c4)c3c2)o1 [Lapatinib, reference compound]
> 3000	2	10.8 ± 4.13	Cc1cc(Nc2ncnc3ccc(NC4=NC(C)(C)CO4)cc23)ccc1Oc1ccn2ncnc2c1 [ONT380, reference compound]

Structure (SMILES)	IC50 (WT EGFR) [nM]	IC50 (WT HER2) [nM]	GI50 (BT474 cells) [nM]
Cc1cc(Nc2ncnc3cccc(O[C@H]4C[C@H]5CC[C@@H](C4)N5CC(F)F)c23)ccc1Oc1ccn2ncnc2c1 [Compound 2, N-(4-([1,2,4]triazolo[1,5-a]pyridin-7-yloxy)-3-methylphenyl)-5-(((1R,3r,5S)-8-(2,2-difluoroethyl)-8-azabicyclo[3.2.1]octan-3-yl)oxy)quinazolin-4-amine]		6.17	19 ± 1.4
Cc1cc(Nc2ncnc3cccc(OC45CCN(CC4)CC5)c23)ccc1Oc1ccn2ccnc2c1 [Compound 13, N-(4-(imidazo[1,2-a]pyridin-7-yloxy)-3-methylphenyl)-5-(quinuclidin-4-yloxy)quinazolin-4-amine]	> 3000	21.8	49.8 ± 6.87
